The source of these data is the OPERA property sets (Mansouri et al. 2018).

Conditions in the first series: not given
`CCC1=CCCCC1` returned a boiling point of 137 °C and a melting point of -110 °C.
In turn, `CON(C(=O)c1cc(C)oc1C)C1CCCCC1` returned a melting point of 33 °C.
On the same count and under the same terms, as for `c1ccc2c(c1)OCCOCCOc1ccccc1OCCOCCO2`, the figure is 163 °C.
Turning to `CCCCC(=O)OCC(=O)[C@H]1[C@H](C)C[C@H]2[C@@H]3C[C@H](F)C4=CC(=O)C=C[C@]4(C)[C@@]3(F)[C@@H](O)C[C@@]21C`, the melting point was found to be 195 °C.
On the same count and under the same terms, as for `O=[N+]([O-])c1ccc(C=NO)o1`, the figure is 163 °C.
Consider `COc1cc(C)cc(C)c1`, for which the boiling point was 194 °C.
Molecule `C1C2CC3CC1CC(C2)C3` yielded a log10 biodegradation half-life (days) of 3 and a melting point of 205 °C.
`O=[N+]([O-])c1ccc(Cl)cc1Cl`: the boiling point was determined as 258 °C, the melting point was 34 °C and the ready biodegradability entry is reported as “not readily biodegradable”.
Molecule `C[C@@H]1CC[C@@]2(OC1)O[C@H]1C[C@H]3[C@@H]4CC=C5C[C@@H](O)CC[C@]5(C)[C@H]4CC[C@]3(C)[C@H]1[C@@H]2C` returned a melting point of 206 °C.
`O=C(O)c1ccc([N+](=O)[O-])cc1Cl`: the melting point turned out to be 140 °C.
As to `CC[Si](CC)(CC)CC`, the boiling point stood at 155 °C and the log10 vapour pressure (mmHg) worked out at 0.699.
As for `CCN(CC)CC(=O)OCC(=O)[C@@]1(O)CC[C@H]2[C@@H]3CCC4=CC(=O)CC[C@]4(C)[C@H]3[C@@H](O)C[C@@]21C`, the melting point worked out at 162 °C.
For `CC(=O)OCC(COC(C)=O)OC(C)=O`, the boiling point came out at 259 °C, the log10 vapour pressure (mmHg) was -2.61 and the ready biodegradability result is on record as “readily biodegradable”.
Molecule `O=C(C(Br)Br)C(Br)(Br)Br` displayed a melting point of 79.5 °C.
In turn, `CCCCOC(C)=O` yielded a boiling point of 126 °C, a log10 Henry constant (atm·m³/mol) of -3.55, a log10 Koa of 3.65 and a log10 vapour pressure (mmHg) of 1.06. In addition, the ready biodegradability result was “readily biodegradable”.
In the case of `CCCCOc1ccc(O)cc1`, the melting point worked out at 65.5 °C.
Take `CC(=O)OCCOCCOC(C)=O`: the boiling point amounted to 200 °C and the melting point is 18 °C.
The like results for `CCC(C(=O)OC)c1ccccc1` (stereo not drawn) were, in that order, 228 °C and 77.5 °C.
`O=C1C=CC(=O)N1c1ccccc1` displayed a melting point of 90.5 °C.
In the case of `CC1=CCCC1`, the boiling point amounted to 75.5 °C and the melting point was -126 °C.
The molecule `CC1=C(O)C(=O)C(C(C)C)CC1` (stereo not drawn) displayed a melting point of 83 °C.
As to `CCN(CC)c1cccc(O)c1`, the boiling point is 276 °C and the melting point turned out to be 78 °C.
On to `CC(=O)O[C@@H]1C[C@]2(O)[C@H](CC[C@]3(C)[C@@H](c4ccc(=O)oc4)CC[C@@]32O)[C@@]2(C)CC[C@H](O[C@@H]3O[C@H](CO)[C@@H](O)[C@H](O)[C@H]3O)C=C12`, for which the melting point came to 169 °C.
In the case of `O=C(O)C1C2CCC(O2)C1C(=O)O` (stereo not drawn), the log10 Koc (L/kg) was 2.09, the log10 vapour pressure (mmHg) is -9.8 and the melting point is 144 °C.
For the molecule `COc1ccccc1I`, the boiling point was found to be 241 °C.
In the case of `CC(C)C(OC(=O)c1cccnc1)c1ccc(Cl)cc1` (stereo not drawn), the melting point was 61 °C.
In the case of `CC(O)CC(C)(C)O` (stereo not drawn), the boiling point was determined as 198 °C, the log10 vapour pressure (mmHg) was -1.89, the melting point is -50 °C and the ready biodegradability entry is recorded as “readily biodegradable”.
Molecule `O=C(O)Cc1ccccc1Oc1ccc(Cl)cc1Cl` gave a melting point of 112 °C.
Take `CCOC(=O)C(C)O` (stereo not drawn): the boiling point turned out to be 154 °C and the log10 vapour pressure (mmHg) turned out to be 0.574.
Turning to `N#CCCN(CCOC(=O)c1ccccc1)c1ccc(N=Nc2ccc([N+](=O)[O-])cc2)cc1`, the ready biodegradability result was “not readily biodegradable”.
`O=[N+]([O-])c1ccc2ccc3cccc4ccc1c2c34` displayed a melting point of 155 °C.
In turn, `CC1CCC(C)(C)C1` (stereo not drawn) showed a boiling point of 105 °C, a log10 vapour pressure (mmHg) of 1.05 and a melting point of -142 °C.
On to `O=CC(=O)O`, for which the ready biodegradability result was “readily biodegradable”.
Take `C=Cc1cccc(C=C)c1`: the log10 vapour pressure (mmHg) is -0.237, the melting point is -52.3 °C and the ready biodegradability entry is “not readily biodegradable”.
Molecule `Cc1ccc2ccccc2c1[N+](=O)[O-]` had a melting point of 81.5 °C.
Take `Clc1cc(Cl)c(-c2cc(Cl)c(Cl)c(Cl)c2Cl)cc1Cl`: the log10 Henry constant (atm·m³/mol) is -5, the log10 Koa worked out at 9.88, the log10 vapour pressure (mmHg) was -6.01 and the logP was determined as 7.72.

The series is the same for the next values; noted with them: fish.
The molecule `O=[N+]([O-])c1ccc(Cl)cc1Cl` displayed a log10 BCF of 2.07 and a log10 biotransformation half-life (days) of 0.83.
The molecule `C=Cc1cccc(C=C)c1` displayed a log10 BCF of 2.54 and a log10 biotransformation half-life (days) of 0.59.

One may read the boiling point as the temperature of boiling at a given pressure. Broadly, the melting point is the temperature of the solid-liquid transition. What is called logP is a log measure of how a compound divides between an organic and an aqueous phase. A higher logP goes with a more lipophilic compound.
